Measured values taken from ChEMBL document CHEMBL2046382, “Synthesis, biological evaluation of 5-carbomethoxymethyl-7-hydroxy-2-pentylchromone, 5-carboethoxymethyl-4',7-dihydroxyflavone and their analogues” (Bioorg Med Chem Lett, 2012).
In brackets after ≈: the same amount, converted by molar mass. Activity calls are given as the source filed them. No cut-off for these calls is given here.

Experiments:
Staphylococcus aureus [1] = assay: Antibacterial activity against Staphylococcus aureus MTCC 2940 by modified microtiter broth dilution method; type: functional
Bacillus subtilis [2] = assay: Antibacterial activity against Bacillus subtilis MTCC 121 at 80 ug/ml by modified microtiter broth dilution method; type: functional, organism-based
Staphylococcus aureus [3] = assay: Antibacterial activity against Staphylococcus aureus MTCC 96 at 80 ug/ml by modified microtiter broth dilution method; type: functional, organism-based
Micrococcus luteus [4] = assay: Antibacterial activity against Micrococcus luteus MTCC 2470 at 80 ug/ml by modified microtiter broth dilution method; type: functional, organism-based
Raoultella planticola [5] = assay: Antibacterial activity against Klebsiella planticola MTCC 530 at 80 ug/ml by modified microtiter broth dilution method; type: functional, organism-based
Escherichia coli [6] = assay: Antibacterial activity against Escherichia coli MTCC 739 at 80 ug/ml by modified microtiter broth dilution method; type: functional, organism-based
Pseudomonas aeruginosa [7] = assay: Antibacterial activity against Pseudomonas aeruginosa MTCC 2453 at 80 ug/ml by modified microtiter broth dilution method; type: functional, organism-based
[8] = test system: Radical scavenging activity; assay: Antioxidant activity assessed as DPPH free radical scavenging activity after 48 hrs; type: functional
[9] = Antioxidant activity assessed as superoxide radical scavenging activity after 48 hrs; type: functional
[10] = Antioxidant activity of the compound assessed as inhibition of lipid peroxidation after 48 hrs; type: functional
Erythrocyte = assay: Antioxidant activity in erythrocytes assessed as inhibition of hemolysis after 48 hrs; type: functional, cell-based
[11] = Chemical stability of the compound in antioxidant reaction; type: physicochemical
Raoultella planticola [12] = assay: Antibacterial activity against Klebsiella planticola MTCC 530 by modified microtiter broth dilution method; type: functional
Escherichia coli [13] = assay: Antibacterial activity against Escherichia coli MTCC 739 by modified microtiter broth dilution method; type: functional
Pseudomonas aeruginosa [14] = assay: Antibacterial activity against Pseudomonas aeruginosa MTCC 2453 by modified microtiter broth dilution method; type: functional
NCI60 = assay: Cytotoxicity against human NCI60 cells; type: functional, cell-based
Staphylococcus aureus [15] = assay: Antibacterial activity against Staphylococcus aureus MTCC 2940 at 80 ug/ml by modified microtiter broth dilution method; type: functional, organism-based
Bacillus subtilis [16] = assay: Antibacterial activity against Bacillus subtilis MTCC 121 by modified microtiter broth dilution method; type: functional
Staphylococcus aureus [17] = assay: Antibacterial activity against Staphylococcus aureus MTCC 96 by modified microtiter broth dilution method; type: functional
Micrococcus luteus [18] = assay: Antibacterial activity against Micrococcus luteus MTCC 2470 by modified microtiter broth dilution method; type: functional
[19] = test system: Radical scavenging activity; assay: Antioxidant activity assessed as DPPH free radical scavenging activity; type: functional
[20] = Antioxidant activity assessed as superoxide radical scavenging activity; type: functional
[21] = Antioxidant activity of the compound assessed as inhibition of lipid peroxidation; type: functional
[22] = Antioxidant activity in erythrocytes assessed as inhibition of hemolysis; type: functional, cell-based; conditions: erythrocyte

SMILES | MIC (Staphylococcus aureus [1]) [µg/mL] | Activity (Bacillus subtilis [2]) | Activity (Staphylococcus aureus [3]) | Activity (Micrococcus luteus [4]) | Activity (Raoultella planticola [5]) | Activity (Escherichia coli [6]) | Activity (Pseudomonas aeruginosa [7]) | Activity [8] | Activity [9] | Activity [10] | Activity (Erythrocyte) | Stability [11] | MIC (Raoultella planticola [12]) [µg/mL] | MIC (Escherichia coli [13]) [µg/mL] | MIC (Pseudomonas aeruginosa [14]) [µg/mL] | Activity (Staphylococcus aureus [15]) | MIC (Bacillus subtilis [16]) [µg/mL] | MIC (Staphylococcus aureus [17]) [µg/mL] | MIC (Micrococcus luteus [18]) [µg/mL] | EC50 [19] [µg/mL] | further results
COC(=O)Cc1cc(O)cc2oc(-c3ccccc3)cc(=O)c12 | 9 (≈ 29 µM) | inactive | inactive | inactive | inactive | inactive | inactive | inactive | inactive | inactive | inactive | Unstable | – | – | – | – | – | – | – | – | –
CCCCCc1cc(=O)c2c(CC(=O)OC)cc(O)cc2o1 [PESTALOTIOPSONE F] | 9 (≈ 29.6 µM) | inactive | inactive | inactive | – | inactive | inactive | inactive | inactive | inactive | inactive | Unstable | 9 (≈ 29.6 µM) | – | – | – | – | – | – | – | –
COC(=O)Cc1cc(O)cc2oc(-c3ccc(OC)c(O)c3)cc(=O)c12 | 37 (≈ 104 µM) | inactive | inactive | inactive | inactive | – | – | inactive | inactive | inactive | inactive | Unstable | – | 18 (≈ 50.5 µM) | 9 (≈ 25.3 µM) | – | – | – | – | – | Activity (NCI60): inactive
COC(=O)Cc1cc(O)cc2oc(-c3ccc(N)cc3)cc(=O)c12 | – | – | inactive | inactive | inactive | inactive | inactive | inactive | inactive | inactive | inactive | Unstable | – | – | – | inactive | 9 (≈ 27.7 µM) | – | – | – | Activity (NCI60): inactive
COC(=O)Cc1cc(O)cc2oc(-c3cccc(OC)c3Cl)cc(=O)c12 | – | inactive | – | inactive | inactive | inactive | inactive | inactive | inactive | inactive | inactive | Unstable | – | – | – | inactive | – | 9 (≈ 24 µM) | – | – | –
CCOC(=O)Cc1cc(O)cc2oc(-c3ccc(O)cc3)cc(=O)c12 | – | – | inactive | – | – | – | inactive | – | – | – | – | – | 9 (≈ 26.4 µM) | 9 (≈ 26.4 µM) | – | inactive | 9 (≈ 26.4 µM) | – | 9 (≈ 26.4 µM) | 71.11 (≈ 209 µM) | EC50 [20]: 77.71 µg/mL (≈ 228 µM); EC50 [21]: 171.54 µg/mL (≈ 504 µM); EC50 [22]: 151.1 µg/mL (≈ 444 µM)
COC(=O)Cc1cc(O)cc2oc(-c3ccc(O)cc3O)cc(=O)c12 | – | inactive | inactive | inactive | inactive | inactive | – | – | – | – | – | – | – | – | 9 (≈ 26.3 µM) | inactive | – | – | – | 60 (≈ 175 µM) | EC50 [20]: 60.9 µg/mL (≈ 178 µM); EC50 [21]: Not Active; EC50 [22]: Not Active
COC(=O)Cc1cc(O)cc2oc(-c3cc(OC)c(OC)c(OC)c3)cc(=O)c12 | 18 (≈ 45 µM) | – | – | – | – | – | – | inactive | inactive | inactive | inactive | Unstable | 9 (≈ 22.5 µM) | 18 (≈ 45 µM) | 18 (≈ 45 µM) | – | 9 (≈ 22.5 µM) | 18 (≈ 45 µM) | 4 (≈ 9.99 µM) | – | –
COC(=O)Cc1cc(O)cc2oc(-c3ccc(Cl)cc3)cc(=O)c12 | 75 (≈ 218 µM) | inactive | – | inactive | inactive | inactive | – | inactive | inactive | inactive | inactive | Unstable | – | – | 37 (≈ 107 µM) | – | – | 37 (≈ 107 µM) | – | – | –
COC(=O)Cc1cc(O)cc2occc(=O)c12 | – | – | inactive | inactive | inactive | inactive | inactive | inactive | inactive | inactive | inactive | Unstable | – | – | – | inactive | – | – | – | – | –
O=C1O[C@H]([C@@H](O)CO)C(O)=C1O [ASCORBIC ACID] | – | – | – | – | – | – | – | – | – | – | – | – | – | – | – | – | – | – | – | 40.28 (≈ 229 µM) | EC50 [20]: 21.01 µg/mL (≈ 119 µM); EC50 [21]: 139.97 µg/mL (≈ 795 µM); EC50 [22]: 119.87 µg/mL (≈ 681 µM)
COC(=O)Cc1cc(O)cc2oc(-c3ccc(C)cc3)cc(=O)c12 | 18 (≈ 55.5 µM) | – | – | – | – | – | – | inactive | inactive | inactive | inactive | Unstable | 18 (≈ 55.5 µM) | 4 (≈ 12.3 µM) | 9 (≈ 27.7 µM) | – | 4 (≈ 12.3 µM) | 9 (≈ 27.7 µM) | 18 (≈ 55.5 µM) | – | Activity (NCI60): inactive
COC(=O)Cc1cc(O)cc2oc(-c3cc(OC)cc(OC)c3)cc(=O)c12 | 18 (≈ 48.6 µM) | – | – | – | – | – | – | inactive | inactive | inactive | inactive | Unstable | 18 (≈ 48.6 µM) | 4 (≈ 10.8 µM) | 9 (≈ 24.3 µM) | – | 18 (≈ 48.6 µM) | 9 (≈ 24.3 µM) | 9 (≈ 24.3 µM) | – | Activity (NCI60): inactive
COC(=O)Cc1cc(O)cc2oc(-c3ccc(O)c(O)c3)cc(=O)c12 | 9 (≈ 26.3 µM) | inactive | inactive | inactive | inactive | inactive | – | – | – | – | – | – | – | – | 9 (≈ 26.3 µM) | – | – | – | – | 49.99 (≈ 146 µM) | EC50 [20]: 44.08 µg/mL (≈ 129 µM); EC50 [21]: 142 µg/mL (≈ 415 µM); EC50 [22]: 127.98 µg/mL (≈ 374 µM)
COC(=O)Cc1cc(O)cc2oc(-c3cc(O)ccc3O)cc(=O)c12 | – | inactive | inactive | – | inactive | – | – | inactive | inactive | inactive | inactive | Unstable | – | 18 (≈ 52.6 µM) | 18 (≈ 52.6 µM) | inactive | – | – | 37 (≈ 108 µM) | 119.11 (≈ 348 µM) | EC50 [20]: 106.22 µg/mL (≈ 310 µM); EC50 [21]: 221.12 µg/mL (≈ 646 µM); EC50 [22]: 209.56 µg/mL (≈ 612 µM)
COC(=O)Cc1cc(O)cc2oc(-c3ccc(O)c(OC)c3)cc(=O)c12 | 18 (≈ 50.5 µM) | – | – | – | – | – | – | inactive | inactive | inactive | inactive | Unstable | 9 (≈ 25.3 µM) | 4 (≈ 11.2 µM) | 9 (≈ 25.3 µM) | – | 4 (≈ 11.2 µM) | 9 (≈ 25.3 µM) | 18 (≈ 50.5 µM) | – | Activity (NCI60): inactive
O=c1cc(-c2ccc(O)c(O)c2)oc2cc(O)cc(O)c12 [LUTEOLIN] | 18 (≈ 62.9 µM) | inactive | – | – | inactive | – | inactive | – | – | – | – | – | – | 4 (≈ 14 µM) | – | – | – | 9 (≈ 31.4 µM) | 18 (≈ 62.9 µM) | 44.18 (≈ 154 µM) | EC50 [20]: 31.01 µg/mL (≈ 108 µM); EC50 [21]: 134.1 µg/mL (≈ 468 µM); EC50 [22]: 122 µg/mL (≈ 426 µM)
COC(=O)Cc1cc(O)cc2oc(-c3ccc([N+](=O)[O-])cc3)cc(=O)c12 | 18 (≈ 50.7 µM) | inactive | inactive | – | – | – | – | inactive | inactive | inactive | inactive | Unstable | 9 (≈ 25.3 µM) | 37 (≈ 104 µM) | 9 (≈ 25.3 µM) | – | 18 (≈ 50.7 µM) | – | 18 (≈ 50.7 µM) | – | –
COC(=O)Cc1cc(O)cc2oc(-c3ccc(OC)cc3)cc(=O)c12 | – | – | inactive | inactive | inactive | – | – | inactive | inactive | inactive | inactive | Unstable | – | 18 (≈ 52.9 µM) | 37 (≈ 109 µM) | inactive | 9 (≈ 26.4 µM) | – | – | – | Activity (NCI60): inactive
COC(=O)Cc1cc(O)cc2oc(-c3cc(O)c(O)c(O)c3)cc(=O)c12 | 9 (≈ 25.1 µM) | inactive | inactive | inactive | – | inactive | inactive | – | – | – | – | – | 9 (≈ 25.1 µM) | – | – | – | – | – | – | 55.08 (≈ 154 µM) | EC50 [20]: 50.09 µg/mL (≈ 140 µM); EC50 [21]: 156.21 µg/mL (≈ 436 µM); EC50 [22]: 139.76 µg/mL (≈ 390 µM)
